Assays:
Type in all cases: in vivo, human
[1] = Placebo-controlled, randomized Phase 2a study in patients with NASH (CLIK066X2204, NCT03205150), interim analysis; conditions: for patients reporting diarrhea (most common adverse event): 12 weeks, placebo 38.9%
Description: Method: Patients with histologically confirmed NASH (F1-F3) or phenotypic NASH (BMI≥27 kg/m^2 in non-Asians or ≥23 kg/m^2 in Asians, ALT≥50 (males) or ≥35 (females) and type 2 diabetes (T2DM)) received daily oral licogliflozin at 150 mg, 30 mg or placebo in a 2:2:1 ratio for 12 weeks (NCT03205150). The primary endpoint is the effect on ALT level after 12 weeks of treatment. Secondary endpoints include improvement in body weight, liver fat content and AST, amongst others. The study size is 110 of which 77 have completed (placebo (n=18); licogliflozin 30 mg (n=25) and licogliflozin 150 mg (n=34)) and are included in the interim analysis.

[2] = Randomized, double-blind, placebo controlled dose finding study in Japanese patients with obesity disease
Description: This study was a randomized, double-blind, placebo controlled, dose finding study to evaluate the effect of licogliflozin (2.5, 10, 25 and 50 mg qd) in 126 Japanese patients with obesity disease. The primary objective was to examine the dose-response relationship of licogliflozin treatment in body weight reduction relative to placebo at 12 weeks. The secondary objectives included assessment of responder rates, change in parameters related to complications, visceral and subcutaneous fat area, and safety through 12 weeks of treatment.

[3] = Phase 2 dose range finding study in obese patients (CLIK066B2201); conditions: 30 mg QD; expected
Description: A dose of 30 mg QD is expected to achieve approximately 70% of maximum observed efficacy (using weight loss as a downstream marker for efficacy; CLIK066B2201). Licogliflozin is currently being tested as 30 mg and 150 mg QD monotherapy in NASH (CLIK066X2204). […] To minimize the risk of GI adverse effects of the SGLT1 inhibition in the gut such as diarrhea, licogliflozin will administered in the evening.

CCc1ccc([C@@H]2O[C@H](CO)[C@@H](O)[C@H](O)[C@H]2O)cc1Cc1ccc2c(c1)OCCO2 [licogliflozin, (2S,3R,4R,5S,6R)-2-(3-((2,3-dihydrobenzo[b][1,4]dioxin-6-yl)methyl)-4-ethylphenyl)-6-(hydroxymethyl)tetrahydro-2H-pyran-3,4,5-triol]
patients reporting diarrhea (most common adverse event) ([1]; 30 mg): 40%
reduction of ALT and liver fat (interim analysis) ([1]; 150 mg QD treatment group): promising reduction
incidence of gastrointestinal events (mainly diarrhea) ([1]; 150 mg QD treatment group, interim analysis): significant incidence
patients reporting diarrhea (most common adverse event) ([1]; 150 mg): 76.5%
safety and tolerability ([2]; 2.5, 10, 25 and 50 mg qd over 12 weeks): safe and well tolerated
ketoacidosis ([2]; 2.5, 10, 25 and 50 mg qd, 12 weeks): no ketoacidosis
patients who achieved reduction of ≥3% in body weight ([2]; 10, 25 and 50 mg qd dose groups, placebo 7.1%, p≤0.002 for all): ≥ 50%
share of maximum observed efficacy (weight loss as downstream marker) [3]: approximately 70%

From patent US20220257626A1, “TREATMENT COMPRISING SGLT INHIBITORS” (Novartis AG, priority 2019, published 2022)
